The test system of test [1] is GL261 murine glioma. As to the kind of experiment: Intracranial GL261 glioma model, flow cytometry of tumor and lymph node cell populations. It is filed as in vivo, C57BL/6 mice. The settings on record: day 16 post-implant, 72 h after second treatment. The protocol: There may be limited endogenous immune response to tumor in C57BL/6 mice intracranially implanted with GL261 murine glioma (FIG. 1A). Mice were intracranially implanted with GL261 murine glioma and then administered PBS (1×) or lysate-pulsed DC vaccine subcutaneously on days 3 and 13 post-tumor implant. On day 16, 72 h after the second treatment, mice were euthanized and spleen, lymph, and brain hemispheres harvested for processing. […] To determine the overall physiologic effect of these cell populations, two groups of GL261 glioma-bearing mice (control and DC vaccine-treated) were maintained and monitored survival.
It was hypothesized that anti-tumor response promoted by the vaccination treatment is mitigated by PD-1/PD-L1 signaling in the tumor microenvironment. […] To evaluate this population, two additional therapies to control and DC-vaccine treatment were examined: anti-PD-1 mAb-treated and combination DC vaccine with anti-PD-1 mAb-treated groups. Spleen, lymph, and brain hemispheres harvested for processing on day 16 post-implant (72 h after second treatment). […] To evaluate therapeutic benefit, mice were implanted, treated, and monitored for survival.
The inhibitory myeloid population was depleted utilizing Ly6C depleting Ab or the clinically-relevant CSF1r inhibitory drug PLX3397. […]

The test system of test [2] is GL261 murine glioma. As to the kind of experiment: Intracranial GL261 glioma model, survival. Format: in vivo, C57BL/6 mice. To be noted: well-established intracranial GL261 glioma.
Protocol: The inhibitory myeloid population was depleted utilizing Ly6C depleting Ab or the clinically-relevant CSF1r inhibitory drug PLX3397. […] Spleen, lymph, and brain hemispheres harvested for processing on day 16 post-implant (72 h after second treatment).
Bone marrow-derived DC and vaccination. […] Briefly, bone marrow cells were cultured in a humidified atmosphere of 5% CO2 at 37° C. overnight in complete RPMI (Mediatech, Inc. Herndon, Va.) (supplemented with 10% FBS, 1% (v/v) penicillin and streptomycin). […]
The subject of test [3] is advanced, treatment-refractory malignancies. The settings on record: cited from earlier work.
The subject of test [4] is diffuse large B-cell lymphoma (DLBCL). The settings on record: cited from earlier work.

`FC(F)(F)c1ccc(CNc2ccc(Cc3c[nH]c4ncc(Cl)cc34)cn2)cn1` [PLX3397]: in the test with GL261 murine glioma [1], the “activated tumor-infiltrating lymphocytes (CD3+CD8+CD25+)” value is “significant tumor-infiltrating population” and the “inhibitory myeloid population (Ly6C+, PD-L1+) in tumor” value is on record as “absence”. In addition, in the test with GL261 murine glioma [2], the survival entry was “entirely recovered survival benefit”.
“BMS-936558: fully human IgG4 monoclonal antibody targeting PD-1”: in test [3] (advanced, treatment-refractory malignancies, biweekly administration), the tumor regressions entry is listed as “durable partial or complete regressions”. In addition, the clinical activity result in test [3] (subjects with non-small cell lung cancer (NSCLC)) is “substantial clinical activity”.
Regarding “CT-011: humanized IgG1 monoclonal antibody against PD-1”, the “activity of natural killer cells” value in test [4] (phase II trial finding) is on record as “augments the activity of natural killer cells”. In test [4] (phase II, DLBCL after autologous stem cell transplantation, control group 47%), the “subjects progression-free at the end of the follow-up period” value was 70%. The subjects alive in test [4] (phase II, DLBCL after autologous stem cell transplantation, control group 62%) was 82%.

Source of the values: patent US20150202291A1, “COMBINATIONS OF CHECKPOINT INHIBITORS AND THERAPEUTICS TO TREAT CANCER” (COGNATE BIOSERVICES, INC., priority 2013, published 2015).
